Laboratory results as given in paper doi:10.1101/2024.08.13.607785v1 (biorxiv, 2024).
Where two headings read alike, the source gives them in different places.

Assays:
Test in all cases: biochemical
Set-up in all cases: species or system human cell line lysate
[1] = biological target: BMP-2-inducible protein kinase ; BMP2K ; Q9NSY1 (Homo sapiens, UniProt Q9NSY1)
[2] = biological target: Beta-adrenergic receptor kinase 2 ; GRK3 ; P35626 (Homo sapiens, UniProt P35626)
[3] = biological target: T1, Dual specificity mitogen-activated protein kinase kinase 5 ; MAP2K5 ; Q13163 (Homo sapiens, UniProt Q13163)
T1 sequence (Q13163 1-448): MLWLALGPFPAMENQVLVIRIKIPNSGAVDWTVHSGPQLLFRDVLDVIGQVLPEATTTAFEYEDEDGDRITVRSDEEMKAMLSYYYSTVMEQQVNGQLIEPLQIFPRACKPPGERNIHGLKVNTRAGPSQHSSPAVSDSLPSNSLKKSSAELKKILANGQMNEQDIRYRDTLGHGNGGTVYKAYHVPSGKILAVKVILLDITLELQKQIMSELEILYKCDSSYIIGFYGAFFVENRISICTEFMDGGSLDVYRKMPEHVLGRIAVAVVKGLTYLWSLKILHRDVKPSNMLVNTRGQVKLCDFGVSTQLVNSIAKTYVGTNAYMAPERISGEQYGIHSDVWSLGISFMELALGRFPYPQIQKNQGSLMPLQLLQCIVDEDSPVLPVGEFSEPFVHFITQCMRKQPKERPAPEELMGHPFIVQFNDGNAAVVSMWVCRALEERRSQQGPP

[4] = biological target: Interleukin-1 receptor-associated kinase 4 ; IRAK4 ; Q9NWZ3 (Homo sapiens, UniProt Q9NWZ3)
[5] = biological target: Isoform 3 of Casein kinase I isoform alpha ; CSNK1A1 ; P48729-3 (Homo sapiens, UniProt P48729)
[6] = biological target: Isoform 3 of Membrane-associated tyrosine- and threonine-specific cdc2 ; PKMYT1 ; Q99640-3 (Homo sapiens, UniProt Q99640)
[7] = biological target: Isoform 3 of Serine/threonine-protein kinase MARK1 ; MARK1 ; Q9P0L2-3 (Homo sapiens, UniProt Q9P0L2)
[8] = biological target: Isoform Beta-II of Protein kinase C beta type ; PRKCB ; P05771-2 (Homo sapiens, UniProt P05771)
[9] = biological target: Isoform CSBP1 of Mitogen-activated protein kinase 14 ; MAPK14 ; Q16539-2 (Homo sapiens, UniProt Q16539)
[10] = biological target: Isoform IB of Tyrosine-protein kinase ABL1 ; ABL1 ; P00519-2 (Homo sapiens, UniProt P00519)
[11] = biological target: Ketosamine-3-kinase ; FN3KRP ; Q9HA64 (Homo sapiens, UniProt Q9HA64)
[12] = biological target: Mitogen-activated protein kinase kinase kinase 12 ; MAP3K12 ; Q12852 (Homo sapiens, UniProt Q12852)
[13] = biological target: Phosphatidylinositol 4,5-bisphosphate 3-kinase catalytic subunit beta ; PIK3CB ; P42338 (Homo sapiens, UniProt P42338)
[14] = biological target: Proto-oncogene tyrosine-protein kinase receptor Ret ; RET ; P07949 (Homo sapiens, UniProt P07949)
[15] = biological target: Ribosomal protein S6 kinase alpha-3 ; RPS6KA3 ; P51812 (Homo sapiens, UniProt P51812)
[16] = biological target: STE20-like serine/threonine-protein kinase ; SLK ; Q9H2G2 (Homo sapiens, UniProt Q9H2G2)
[17] = biological target: Serine/threonine-protein kinase MRCK gamma ; CDC42BPG ; Q6DT37 (Homo sapiens, UniProt Q6DT37)
[18] = biological target: Serine/threonine-protein kinase PAK 5 ; PAK5 ; Q9P286 (Homo sapiens, UniProt Q9P286)
[19] = biological target: Serine/threonine-protein kinase RIO1 ; RIOK1 ; Q9BRS2 (Homo sapiens, UniProt Q9BRS2)
[20] = biological target: Tyrosine-protein kinase JAK1 ; JAK1 ; P23458 (Homo sapiens, UniProt P23458)
[21] = read-out: BAY-1143572 (10 µM) / %Intensity relative to DMSO
[22] = read-out: BAY-1251152 (10 µM) / %Intensity relative to DMSO

Chain of Proto-oncogene tyrosine-protein kinase receptor Ret ; RET ; P07949 (P07949 whole entry): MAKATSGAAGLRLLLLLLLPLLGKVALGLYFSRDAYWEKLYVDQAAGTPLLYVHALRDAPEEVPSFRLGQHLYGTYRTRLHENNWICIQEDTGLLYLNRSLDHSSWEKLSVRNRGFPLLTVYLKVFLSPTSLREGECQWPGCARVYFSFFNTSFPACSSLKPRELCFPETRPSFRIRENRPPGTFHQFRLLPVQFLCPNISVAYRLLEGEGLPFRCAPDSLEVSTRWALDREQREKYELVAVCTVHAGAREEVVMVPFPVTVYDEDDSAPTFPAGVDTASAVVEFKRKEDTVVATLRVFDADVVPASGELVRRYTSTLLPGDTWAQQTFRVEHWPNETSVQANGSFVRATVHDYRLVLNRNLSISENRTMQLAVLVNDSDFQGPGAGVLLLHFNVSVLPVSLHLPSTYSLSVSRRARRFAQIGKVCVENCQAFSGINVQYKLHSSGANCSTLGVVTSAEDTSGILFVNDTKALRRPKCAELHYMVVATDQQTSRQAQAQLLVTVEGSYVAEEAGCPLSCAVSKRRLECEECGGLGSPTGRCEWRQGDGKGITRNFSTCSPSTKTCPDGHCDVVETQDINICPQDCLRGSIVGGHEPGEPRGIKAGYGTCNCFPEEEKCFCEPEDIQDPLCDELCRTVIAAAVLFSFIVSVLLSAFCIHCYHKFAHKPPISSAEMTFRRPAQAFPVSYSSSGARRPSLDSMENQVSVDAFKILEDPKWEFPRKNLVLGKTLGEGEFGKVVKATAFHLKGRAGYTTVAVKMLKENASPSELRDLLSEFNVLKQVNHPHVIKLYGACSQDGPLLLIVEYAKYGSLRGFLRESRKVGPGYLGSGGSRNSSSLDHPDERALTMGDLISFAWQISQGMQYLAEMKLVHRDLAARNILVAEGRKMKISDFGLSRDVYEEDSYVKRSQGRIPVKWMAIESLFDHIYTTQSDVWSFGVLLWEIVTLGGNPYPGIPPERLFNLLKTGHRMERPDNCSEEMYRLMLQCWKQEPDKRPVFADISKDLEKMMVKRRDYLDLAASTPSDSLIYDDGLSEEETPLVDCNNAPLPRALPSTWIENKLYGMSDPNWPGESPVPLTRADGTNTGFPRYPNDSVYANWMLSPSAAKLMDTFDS
Chain of Isoform CSBP1 of Mitogen-activated protein kinase 14 ; MAPK14 ; Q16539-2 (Q16539 whole entry, canonical isoform): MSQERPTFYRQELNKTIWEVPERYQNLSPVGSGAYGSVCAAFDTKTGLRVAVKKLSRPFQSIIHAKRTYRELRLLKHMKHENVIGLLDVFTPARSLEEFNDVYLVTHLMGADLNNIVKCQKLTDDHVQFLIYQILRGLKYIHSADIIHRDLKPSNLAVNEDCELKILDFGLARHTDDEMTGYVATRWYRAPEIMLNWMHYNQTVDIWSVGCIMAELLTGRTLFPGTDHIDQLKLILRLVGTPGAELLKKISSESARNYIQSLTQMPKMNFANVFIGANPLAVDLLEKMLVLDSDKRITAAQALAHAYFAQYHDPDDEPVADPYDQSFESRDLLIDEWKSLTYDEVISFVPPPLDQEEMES
Chain of Ketosamine-3-kinase ; FN3KRP ; Q9HA64 (Q9HA64 whole entry): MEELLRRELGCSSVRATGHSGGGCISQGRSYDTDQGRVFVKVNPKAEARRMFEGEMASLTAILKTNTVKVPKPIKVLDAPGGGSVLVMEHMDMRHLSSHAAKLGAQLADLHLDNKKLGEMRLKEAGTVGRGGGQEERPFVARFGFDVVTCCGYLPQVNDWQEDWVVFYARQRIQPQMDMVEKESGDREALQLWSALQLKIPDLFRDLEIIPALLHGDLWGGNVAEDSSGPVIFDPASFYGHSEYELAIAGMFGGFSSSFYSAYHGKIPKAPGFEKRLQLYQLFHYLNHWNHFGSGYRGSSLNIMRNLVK
Chain of Beta-adrenergic receptor kinase 2 ; GRK3 ; P35626 (P35626 whole entry): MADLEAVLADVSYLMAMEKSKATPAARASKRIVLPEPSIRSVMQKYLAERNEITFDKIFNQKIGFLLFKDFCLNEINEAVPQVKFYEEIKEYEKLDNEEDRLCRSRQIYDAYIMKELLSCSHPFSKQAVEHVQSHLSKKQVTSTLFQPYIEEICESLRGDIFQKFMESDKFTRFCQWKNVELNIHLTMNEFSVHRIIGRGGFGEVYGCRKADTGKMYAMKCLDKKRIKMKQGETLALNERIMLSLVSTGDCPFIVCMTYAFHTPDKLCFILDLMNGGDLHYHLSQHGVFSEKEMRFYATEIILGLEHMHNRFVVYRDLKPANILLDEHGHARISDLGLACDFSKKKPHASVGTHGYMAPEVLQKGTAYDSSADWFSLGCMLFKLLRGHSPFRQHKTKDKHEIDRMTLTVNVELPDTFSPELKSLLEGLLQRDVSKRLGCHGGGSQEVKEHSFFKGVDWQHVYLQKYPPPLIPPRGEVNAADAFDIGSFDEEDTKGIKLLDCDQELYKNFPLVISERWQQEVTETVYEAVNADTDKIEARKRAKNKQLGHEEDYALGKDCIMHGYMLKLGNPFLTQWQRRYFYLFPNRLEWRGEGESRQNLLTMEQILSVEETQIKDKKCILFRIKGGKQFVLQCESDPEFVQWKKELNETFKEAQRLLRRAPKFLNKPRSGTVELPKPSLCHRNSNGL
Chain of STE20-like serine/threonine-protein kinase ; SLK ; Q9H2G2 (Q9H2G2 whole entry, one chain of several): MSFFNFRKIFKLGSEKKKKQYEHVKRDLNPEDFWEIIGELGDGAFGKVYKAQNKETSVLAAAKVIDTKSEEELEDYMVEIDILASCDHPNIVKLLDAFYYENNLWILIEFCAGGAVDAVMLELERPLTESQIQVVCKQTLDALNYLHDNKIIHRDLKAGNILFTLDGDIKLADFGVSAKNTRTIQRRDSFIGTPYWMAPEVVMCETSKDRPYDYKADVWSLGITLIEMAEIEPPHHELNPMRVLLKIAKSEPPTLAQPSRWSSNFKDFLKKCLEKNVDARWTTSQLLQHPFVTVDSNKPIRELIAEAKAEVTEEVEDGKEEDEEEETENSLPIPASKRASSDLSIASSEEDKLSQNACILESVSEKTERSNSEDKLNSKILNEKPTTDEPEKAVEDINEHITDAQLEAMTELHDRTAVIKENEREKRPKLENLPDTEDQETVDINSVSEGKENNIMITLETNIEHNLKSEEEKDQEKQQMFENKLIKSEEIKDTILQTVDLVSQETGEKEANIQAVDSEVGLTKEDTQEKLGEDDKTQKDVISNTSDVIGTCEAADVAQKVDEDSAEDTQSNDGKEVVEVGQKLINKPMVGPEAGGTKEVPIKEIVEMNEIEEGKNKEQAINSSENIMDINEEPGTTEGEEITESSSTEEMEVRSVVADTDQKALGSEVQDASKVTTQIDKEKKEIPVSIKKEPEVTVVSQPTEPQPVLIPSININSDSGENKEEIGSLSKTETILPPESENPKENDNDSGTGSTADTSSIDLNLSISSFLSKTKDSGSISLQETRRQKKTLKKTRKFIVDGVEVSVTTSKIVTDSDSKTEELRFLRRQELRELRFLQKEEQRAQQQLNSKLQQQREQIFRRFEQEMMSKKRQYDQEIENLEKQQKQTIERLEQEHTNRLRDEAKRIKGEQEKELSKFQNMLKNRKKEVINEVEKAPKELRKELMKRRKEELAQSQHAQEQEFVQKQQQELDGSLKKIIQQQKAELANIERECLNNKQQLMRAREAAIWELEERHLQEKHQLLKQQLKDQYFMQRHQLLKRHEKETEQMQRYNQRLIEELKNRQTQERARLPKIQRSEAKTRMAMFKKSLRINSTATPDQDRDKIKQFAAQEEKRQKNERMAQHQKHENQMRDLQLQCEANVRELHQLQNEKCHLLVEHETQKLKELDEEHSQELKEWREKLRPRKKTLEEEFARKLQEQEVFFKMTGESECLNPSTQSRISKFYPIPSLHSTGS
Chain of Isoform 3 of Serine/threonine-protein kinase MARK1 ; MARK1 ; Q9P0L2-3 (Q9P0L2 whole entry, canonical isoform, one chain of several): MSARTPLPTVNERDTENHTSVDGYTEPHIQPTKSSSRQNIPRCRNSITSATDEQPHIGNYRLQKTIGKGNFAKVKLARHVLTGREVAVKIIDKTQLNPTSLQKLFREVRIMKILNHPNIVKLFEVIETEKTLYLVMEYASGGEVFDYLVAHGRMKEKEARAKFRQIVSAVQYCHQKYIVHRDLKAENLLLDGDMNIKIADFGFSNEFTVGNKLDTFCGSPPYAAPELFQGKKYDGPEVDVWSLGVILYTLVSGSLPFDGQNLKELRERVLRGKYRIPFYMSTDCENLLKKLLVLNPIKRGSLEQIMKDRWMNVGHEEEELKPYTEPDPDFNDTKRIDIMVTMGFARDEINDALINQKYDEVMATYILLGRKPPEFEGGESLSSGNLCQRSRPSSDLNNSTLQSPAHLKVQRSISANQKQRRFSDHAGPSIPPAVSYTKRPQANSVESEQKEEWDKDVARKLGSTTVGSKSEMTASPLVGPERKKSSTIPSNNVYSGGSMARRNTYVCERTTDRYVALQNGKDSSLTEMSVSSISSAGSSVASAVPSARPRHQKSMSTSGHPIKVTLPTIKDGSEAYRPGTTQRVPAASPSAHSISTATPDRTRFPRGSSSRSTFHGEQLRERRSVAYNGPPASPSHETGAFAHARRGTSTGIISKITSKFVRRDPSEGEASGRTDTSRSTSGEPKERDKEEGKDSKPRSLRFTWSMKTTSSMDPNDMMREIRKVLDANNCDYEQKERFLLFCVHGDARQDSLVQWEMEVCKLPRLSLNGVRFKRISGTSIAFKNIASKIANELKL
Chain of Isoform 3 of Casein kinase I isoform alpha ; CSNK1A1 ; P48729-3 (P48729 whole entry, canonical isoform): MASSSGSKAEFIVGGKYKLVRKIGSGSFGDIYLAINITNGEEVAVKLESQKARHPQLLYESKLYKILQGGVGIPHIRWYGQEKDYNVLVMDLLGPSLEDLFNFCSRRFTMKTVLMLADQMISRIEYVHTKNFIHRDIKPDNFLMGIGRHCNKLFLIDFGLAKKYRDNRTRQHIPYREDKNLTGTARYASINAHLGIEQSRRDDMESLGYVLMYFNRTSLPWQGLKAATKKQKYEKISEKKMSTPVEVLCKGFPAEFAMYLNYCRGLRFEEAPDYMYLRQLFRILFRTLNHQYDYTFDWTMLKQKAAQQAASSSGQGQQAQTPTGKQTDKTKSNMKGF

`COc1cc(F)ccc1-c1ncnc(Nc2cccc(C[S@](C)(=N)=O)c2)n1` [BAY-1143572] was tested, and the remaining activity at 10 µM [1, 21] was 88.5%, the remaining activity at 10 µM [2, 21] was 88.8% and the remaining activity at 10 µM [3, 21] was 102%. For the same compound, the remaining activity at 10 µM [4, 21] was 121%, the remaining activity at 10 µM [5, 21] was 115% and the remaining activity at 10 µM [6, 21] was 117%. For the same compound, the remaining activity at 10 µM [7, 21] was 80.9%, the remaining activity at 10 µM [8, 21] was 121% and the remaining activity at 10 µM [9, 21] was 133%. For the same compound, the remaining activity at 10 µM [10, 21] was 67.4%, the remaining activity at 10 µM [11, 21] was 117% and the remaining activity at 10 µM [12, 21] was 114%. For the same compound, the remaining activity at 10 µM [13, 21] was 83.7%, the remaining activity at 10 µM [14, 21] was 97% and the remaining activity at 10 µM [15, 21] was 115%. It also gave a remaining activity at 10 µM [16, 21] of 97.7%, a remaining activity at 10 µM [17, 21] of 102% and a remaining activity at 10 µM [18, 21] of 138%. The remaining activity at 10 µM [19, 21] was 106% and the remaining activity at 10 µM [20, 21] was 104%.
`COc1cc(F)ccc1-c1cc(Nc2cc(CS(C)(=N)=O)ccn2)ncc1F` (stereo not shown) [BAY-1251152] gave a remaining activity at 10 µM [1, 22] of 84.7%, a remaining activity at 10 µM [2, 22] of 83.7% and a remaining activity at 10 µM [3, 22] of 101%. It also gave a remaining activity at 10 µM [4, 22] of 112%, a remaining activity at 10 µM [5, 22] of 111% and a remaining activity at 10 µM [6, 22] of 107%. The remaining activity at 10 µM [7, 22] was 84.7%, the remaining activity at 10 µM [8, 22] was 119% and the remaining activity at 10 µM [9, 22] was 120%. For the same compound, the remaining activity at 10 µM [10, 22] was 83.2%, the remaining activity at 10 µM [11, 22] was 114% and the remaining activity at 10 µM [12, 22] was 109%. The remaining activity at 10 µM [13, 22] was 57.7%, the remaining activity at 10 µM [14, 22] was 87.9% and the remaining activity at 10 µM [15, 22] was 107%. For the same compound, the remaining activity at 10 µM [16, 22] was 53.8%, the remaining activity at 10 µM [17, 22] was 103% and the remaining activity at 10 µM [18, 22] was 143%. It also gave a remaining activity at 10 µM [19, 22] of 96.7% and a remaining activity at 10 µM [20, 22] of 110%.
